Measured values taken from patent US7244718B2, “Water soluble prodrugs of hindered alcohols” (University of Kansas, priority 1998, dated 2007).

Experiment: Stability of the isolated free acid on standing at room temperature
Assay type: physicochemical
Conditions: isolated free acid (oil)
Experimental: To a solution of o-phosphonooxymethylpropofol dibenzyl ester (115 mg, 0.245 mmol) in methanol (10 mL) was added palladium on carbon (10%, 20 mg). This mixture was stirred under an atmosphere of hydrogen (1 atm) for 1.5 hour.
To a solution of O-phosphonooxymethyl-alpha-tocopherol dibenzyl ester (88 mg, 0.12 mmol) in tetrahydrofuran (10 mL) was added palladium on carbon (10%, 15 mg). The mixture was stirred under an atmosphere of hydrogen (1 atm) for 10 minutes (the reaction was complete after 5 minutes as judged by TLC). The catalyst was removed by filtration through Celite, the filtrate was evaporated at reduced pressure, and then dried in vacuo.

SMILES	stability at room temperature
Cc1c(C)c2c(c(C)c1OCOP(=O)(O)O)CCC(C)(CCCC(C)CCCC(C)CCCC(C)C)O2 (stereo not drawn) [IIb, O-phosphonooxymethyl-alpha-tocopherol]	unstable at room temperature
CC(C)c1cccc(C(C)C)c1OCOP(=O)(O)O [Id, O-phosphonooxymethylpropofol]	unstable on standing at room temperature
